From patent publication US20230340406A1, “METHODS AND COMPOSITIONS FOR PRODUCING STEM CELL DERIVED SPINAL GABA INHIBITORY NEURONS FOR USE IN TREATMENT OF SPINAL CORD INJURY” (BrainXell, Inc., priority 2020, published 2023)

Test system: SCI model in rats
Test: Spasticity: amplitude of the Hoffman reflex (H-reflex)
Assay type: in vivo, rat
Details: for H % following CNO: 12 weeks
Excerpt: Taking advantage of the DREADD-expressing neural cells we transplanted, we asked if the therapeutic effects depend on the activity of the grafted cells.

C[N+]1([O-])CCN(C2=Nc3cc(Cl)ccc3Nc3ccccc32)CC1 [CNO]
H % following CNO injection (cell-transplanted rats (DREADD-expressing cells), 3 mg/kg, 6 weeks, 2 Hz): 47%±4.12% | decrease of H % following CNO injection (cell-transplanted rats, 3 mg/kg, 6 weeks, 1 Hz): not at 1 Hz | H % following CNO injection (cell-transplanted rats, 3 mg/kg, 6 weeks, 5 Hz): 28.21%±5.63% | H % following CNO (cell-transplanted rats, 1 Hz): 26.05%±5.64% | H % following CNO (cell-transplanted rats, 2 Hz): 17.57%±4.98% | H % following CNO (cell-transplanted rats, 5 Hz): 9.09%±1.52% | change of H % in response to CNO treatment (control animals: sham operation, SCI, SCI injected with medium): did not show any changes
